Read-outs that look alike come from different tables or passages of the source.
Assays:
pSTAT5 in CD3+ cells = experiment: Inhibition of IFN-alpha induced pSTAT5 expression in CD3+ cells (human PBMC), FACS assay; format: cell-based; details: IFN-α 20 ng/ml
Experimental: Test Example 1: The Inhibitory Effect of Compounds on the Expression of Pstat5 in CD3+ Cells Using FACS Assay
• DMSO, Sigma, Cat #D2650-100 mL, stored at room temperature. • Perm buffer III, BD Biosciences, Cat #558050, stored at 4° C. • Lyse/Fix buffer, BD Biosciences, Cat #558049, stored at room temperature. • EDTA, Invitrogen, Cat #15575-038, stored at room temperature. • PBS, Hyclone, Cat #SH30256.01, stored at 4° C. • PE Mouse Anti-Human CD3, BD Biosciences, Cat #555333, stored at 4° C. • Mouse anti-human Phospho-STAT5 (pY694) (Alexa Fluor® 647 Conjugate), • BD Biosciences, Cat #562076, stored at 4° C. • IFN-α, Biolegend, Cat #592702.
• 1) On the day of experiment, the compound was prepared into a 10 mM solution with DMSO, diluted to 1.5 mM in DMSO, and then diluted to 8 gradient concentrations in 3-fold dilutions Concentrations. • 2) 5 μL of the diluted compound was transferred into 120 ul of DPBS solution containing 0.1% BSA. • 3) Positive and negative control groups were set up, and 0.2% DMSO was added to the positive and negative control groups. 2.2 Experimental procedure • 1) 0.5 million and 67.5 ul of human PBMC cells was added to the 96-well cell culture plate per well. • 2) 3.5 ul of diluted compound was added and mixed well. • 3) Incubation was conducted in a 37° C. incubator for 60 minutes. • 4) IFN-alpha was diluted in DPBS containing 0.1% BSA to […], and PE anti-hCD3 antibody was diluted in DPBS containing 0.1% BSA to 3 fold. When the above 60-minute incubation was complete, diluted PE anti-hCD3 antibody was added at 5 ul per well and diluted IFN-α was added at 4 ul per well, i.e., the final concentration of IFN-α per well is 20 ng/ml. • 5) Incubation was conducted in a 37° C. incubator for 30 minutes. • 6) All cells were transferred to a 96-well deep well plate and 1 ml of 37° C. preheated lysis/fix buffer was added. • 7) Incubation was conducted at 37° C. in dark for 10 minutes. • 8) Centrifugation was carried out at 600 g for 5 minutes and then the supernatant was discarded. 1 ml PBS was added to wash for twice and then centrifuged. • 9) 1 ml of Perm buffer III was added to the cell precipitation. • 10) Incubation was conducted at 4° C. in dark for 30 minutes. • 11) Centrifugation was carried out at 600 g for 5 minutes and then the supernatant was discarded. 1 ml PBS was added to wash for twice and then centrifuged. • 12) APC anti-human pSTAT5 antibody was diluted in staining buffer by 200-fold, which was added to cell wells at 100 uL per well and mixed well. • 13) Incubation was conducted at room temperature for 40 minutes. • 14) Staining buffer was added to wash for twice with 1 mL for each well, and centrifugation was carried out at 600 g for 5 minutes. • 15) After discarding the supernatant, the cell precipitation was re-suspended in 300 μL of staining buffer. • 16) Sample loading and analysis were carried out in a flow cytometer. The IC50 of the samples to be tested was obtained from the above, Table 1.

[1] = Drug concentrations in plasma samples and brain tissue samples after oral administration, LC-MS/MS; format: in vivo, female C57BL/6 mice; details: female, C57BL/6, mouse, 15 consecutive days, 2Hr after the last dose, mice; for Kp at 2 h: brain/plasma, read-out: Ratio (brain tissue to plasma concentration)
Experimental: The purpose of the study was to evaluate drug concentrations in plasma samples and brain tissue samples of female C57BL/6 mice after 15 consecutive days of oral administration of 10 mg/kg, 30 mg/kg, and 90 mg/kg of Compound 4S. The drug concentrations of Compound 4S in plasma samples and brain tissue homogenate samples were detected by the positive ion (ESI) multi-reactive ion monitoring (MRM) scanning mode of LC-MS instrument with a linear range of 1-10000 ng/mL.
Plasma samples from 10 mice orally administered with Compound 4S: For standard curves, QC samples, single blanks, and unknown samples, the sample volume was 10 μL and each was added with 200 μL of methanol: acetonitrile=1:1 (v/v) precipitant (containing 5 ng/mL of Terfenadine). For double-blank samples, each was added with 200 μL of Methanol: Acetonitrile=1:1 (v/v) precipitant. The samples were vortexed for 1 min and centrifuged for 15 min (4000 rpm, 4° C.) to obtain the supernatant solution, which was diluted by 10-fold using methanol: water=1:1 (v/v, containing 0.1% FA) as the diluent solution and then subjected to LC-MS/MS analysis.
Brain tissue homogenate samples from 10 mice orally administered with Compound 4S: For standard curves, QC samples, single blanks, and unknown samples, the sample volume was 50 μL and each was added with 200 μL of methanol: acetonitrile=1:1 (v/v) precipitant (containing 5 ng/mL of Terfenadine). For double-blank samples, a 50 μL sample of blank brain tissue homogenate was taken and added with 200 μL of methanol/acetonitrile (1:1, v/v) precipitant. The samples were vortexed for 1 min and centrifuged for 15 min (4000 rpm, 4° C.) to obtain the supernatant solution, which was diluted by 10-fold using methanol: water=1:1 (v/v, containing 0.1% FA) as the diluent solution and then subjected to LC-MS/MS analysis. Drug exposures in plasma samples and brain tissue samples at different administered doses and at different frequencies of administration of the same administered dose were compared (Table 3).

JAK1 (JH1) = JAK1 (JH1) (Homo sapiens (Human), UniProt P23458); experiment: JAK family kinase experiment, JAK1 (JH1); format: biochemical
Sequence of JAK1 (JH1) (P23458 875-1153): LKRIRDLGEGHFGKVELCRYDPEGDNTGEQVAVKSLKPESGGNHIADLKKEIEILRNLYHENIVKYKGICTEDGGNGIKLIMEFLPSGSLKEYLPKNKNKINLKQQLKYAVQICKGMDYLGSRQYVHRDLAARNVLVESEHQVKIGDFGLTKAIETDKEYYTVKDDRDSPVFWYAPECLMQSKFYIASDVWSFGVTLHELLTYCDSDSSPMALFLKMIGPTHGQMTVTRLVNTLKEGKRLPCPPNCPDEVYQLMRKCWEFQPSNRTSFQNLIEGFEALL
Experimental: (§1) 1.2.1. The compound was dissolved with DMSO to a storage concentration of 10 mM.
(§2) 1.2.2. A compound concentration of 100 times the final concentration was prepared in a compound dilution plate, which was diluted from the highest concentration point with a total of 4 concentration points using the 27 times dilution method, and transferred to the Echo plate.
(§3) 1.2.3. The compound was flushed from the Echo plate to the 384 experimental plate using an Echo instrument, and the compound become 11 concentration points of the 3-fold dilution matrix.
(§4) 1.2.4. 2× kinase working solution was prepared, which was added to a 384-well experimental plate at 5 μl per well. The compound and the kinase were incubated at room temperature for 15 minutes.
(§5) 1.2.5. 5 ul of 2× substrate (containing ATP) was added to the 384 well plate.
(§6) 1.2.6. Incubation was conducted at room temperature for 45 minutes.
(§7) 1.2.7. The detection reagent mixture was added to the 384-well plate, and centrifuged for 30 seconds, and incubation was conducted at room temperature for 60 minutes.
(§8) 1.2.8. The signal values were read using Envision Microplate Reader (PerkinElmer).
(§9) 1.3.1. XL-Fit software was used for data analysis to obtain IC50 of the compounds, Table 2.

JAK3 (JH1) = JAK3 (JH1) (Homo sapiens (Human), UniProt P52333); experiment: JAK family kinase experiment, JAK3 (JH1); format: biochemical
Sequence of JAK3 (JH1) (P52333 822-1111): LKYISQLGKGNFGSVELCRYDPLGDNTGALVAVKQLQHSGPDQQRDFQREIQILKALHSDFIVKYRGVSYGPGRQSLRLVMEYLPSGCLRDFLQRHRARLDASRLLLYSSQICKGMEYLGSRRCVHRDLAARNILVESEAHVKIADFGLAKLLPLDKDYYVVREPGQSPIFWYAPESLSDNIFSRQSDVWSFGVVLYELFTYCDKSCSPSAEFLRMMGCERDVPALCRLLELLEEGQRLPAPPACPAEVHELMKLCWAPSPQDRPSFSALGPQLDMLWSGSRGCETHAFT
Experimental: as §1, §2, §3, §4, §5, §6, §7, §8, §9

JAK2 (JH1) = JAK2 (JH1) (Homo sapiens (Human), UniProt O60674); experiment: JAK family kinase experiment, JAK2 (JH1); format: biochemical
Sequence of JAK2 (JH1) (O60674 849-1124): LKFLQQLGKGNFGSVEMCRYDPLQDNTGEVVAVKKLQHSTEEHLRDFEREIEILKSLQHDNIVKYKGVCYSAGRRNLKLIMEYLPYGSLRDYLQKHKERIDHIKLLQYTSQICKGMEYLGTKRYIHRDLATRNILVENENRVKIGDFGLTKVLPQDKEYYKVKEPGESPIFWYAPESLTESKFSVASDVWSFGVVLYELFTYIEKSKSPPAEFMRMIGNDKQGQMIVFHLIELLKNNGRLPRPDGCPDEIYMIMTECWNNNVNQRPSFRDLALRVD
Experimental: as §1, §2, §3, §4, §5, §6, §7, §8, §9

TYK2(JH2) = TYK2(JH2) (Homo sapiens (Human), UniProt P29597); experiment: Pseudo kinase experiment, TYK2 (JH2), tracer/Tb; format: binding
Sequence of TYK2(JH2) (P29597 589-875): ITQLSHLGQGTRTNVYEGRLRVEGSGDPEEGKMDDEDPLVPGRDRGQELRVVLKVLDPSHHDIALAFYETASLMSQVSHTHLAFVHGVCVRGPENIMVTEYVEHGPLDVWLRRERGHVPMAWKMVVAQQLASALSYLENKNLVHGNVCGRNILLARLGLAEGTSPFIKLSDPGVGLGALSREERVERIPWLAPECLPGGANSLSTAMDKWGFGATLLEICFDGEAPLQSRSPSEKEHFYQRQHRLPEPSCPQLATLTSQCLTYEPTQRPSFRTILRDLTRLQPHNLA
Experimental: (§10) 1.1.1. The compound was dissolved with DMSO to a storage concentration of 10 mM.
(§11) 1.1.2. A compound concentration of 200 times the final concentration was prepared in a compound dilution plate, which was diluted from the highest concentration point with a total of 4 concentration points using the 27 times dilution method, and transferred to the Echo plate.
(§12) 1.1.3. The compound was flushed from the Echo plate to the 384-well experimental plate using an Echo instrument, and the compound become 11 concentration points of the 3-fold dilution matrix.
(§13) 1.1.4. 5 μl of 3×TYK2(JH2) or JAK1(JH2) kinase was added to the 384-well experimental plate.
(§14) 1.1.5. 5 μl of 3×Tb was added to the 384-well experimental plate.
(§15) 1.1.6.5 μl of 3× Tracer was added to the 384-well experimental plate.
(§16) 1.1.7. Centrifugation was conducted for 30 seconds and incubation was carried out at room temperature for 60 minutes.
(§17) 1.1.8. The signal values were read using Envision Microplate Reader (PerkinElmer).
as §9

JAK1(JH2) = JAK1(JH2) (Homo sapiens (Human), UniProt P23458); experiment: Pseudo kinase experiment, JAK1 (JH2), tracer/Tb; format: binding
Sequence of JAK1(JH2) (P23458 583-855): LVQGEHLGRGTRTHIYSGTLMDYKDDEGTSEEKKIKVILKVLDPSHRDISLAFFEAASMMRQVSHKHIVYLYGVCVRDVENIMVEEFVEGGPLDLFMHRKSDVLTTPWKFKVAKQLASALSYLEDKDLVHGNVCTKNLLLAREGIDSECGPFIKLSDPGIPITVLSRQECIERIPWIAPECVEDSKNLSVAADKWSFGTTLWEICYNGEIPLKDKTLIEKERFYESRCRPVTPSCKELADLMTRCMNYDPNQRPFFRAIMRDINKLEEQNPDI
Experimental: as §10, §11, §12, §13, §14, §15, §16, §17, §9

TYK2 (JH1) = TYK2 (JH1) (Homo sapiens (Human), UniProt P29597); experiment: JAK family kinase experiment, TYK2 (JH1); format: biochemical
Sequence of TYK2 (JH1) (P29597 897-1176): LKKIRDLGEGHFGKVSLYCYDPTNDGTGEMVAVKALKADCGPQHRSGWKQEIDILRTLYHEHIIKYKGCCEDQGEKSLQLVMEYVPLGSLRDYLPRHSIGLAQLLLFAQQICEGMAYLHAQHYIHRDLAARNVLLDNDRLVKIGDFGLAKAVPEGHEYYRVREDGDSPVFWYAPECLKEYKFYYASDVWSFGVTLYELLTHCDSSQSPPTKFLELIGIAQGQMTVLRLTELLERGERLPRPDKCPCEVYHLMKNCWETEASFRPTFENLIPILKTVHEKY
Experimental: as §1, §2, §3, §4, §5, §6, §7, §8, §9

CCC(=O)c1cnc(NC(=O)[C@@H]2CC23CC3)cc1Nc1nccc(-c2cnn(C)n2)c1OC [Compound 1R]
IC50 (pSTAT5 in CD3+ cells): > 50 nM

CCC(=O)c1cnc(NC(=O)[C@H]2CC23CC3)cc1Nc1nccc(-c2cnn(C)n2)c1OC [Compound 1S]
IC50 (pSTAT5 in CD3+ cells): < 50 nM

CCC(=O)c1cnc(NC(=O)[C@@H]2CC23CC3)cc1Nc1cccc(-c2cnn(C)n2)c1OC [Compound 2R]
IC50 (pSTAT5 in CD3+ cells): > 50 nM

CCC(=O)c1cnc(NC(=O)[C@H]2CC23CC3)cc1Nc1cccc(-c2cnn(C)n2)c1OC [Compound 2S]
IC50 (pSTAT5 in CD3+ cells): > 50 nM

[2H]C([2H])([2H])n1ncc(-c2ccnc(Nc3cc(NC(=O)[C@@H]4CC45CC5)ncc3C(=O)CC)c2OC)n1 [Compound 3R]
IC50 (pSTAT5 in CD3+ cells): < 50 nM

[2H]C([2H])([2H])n1ncc(-c2ccnc(Nc3cc(NC(=O)[C@H]4CC45CC5)ncc3C(=O)CC)c2OC)n1 [Compound 3S]
IC50 (pSTAT5 in CD3+ cells): < 50 nM

[2H]C([2H])([2H])Oc1c(-c2cnn(C)n2)ccnc1Nc1cc(NC(=O)[C@@H]2CC23CC3)ncc1C(=O)CC [Compound 4R]
IC50 (pSTAT5 in CD3+ cells): > 50 nM

[2H]C([2H])([2H])Oc1c(-c2cnn(C)n2)ccnc1Nc1cc(NC(=O)[C@H]2CC23CC3)ncc1C(=O)CC [Compound 4S]
concentration at 2 h ([1]; brain, 10 mg/kg, 10 mg QD oral, read-out: concentration in brain): 615 ng/mL | concentration at 2 h ([1]; brain, 30 mg/kg, 30 mg BID oral, read-out: concentration in brain): 2360 ng/mL | concentration at 2 h ([1]; brain, 30 mg/kg, 30 mg QD oral, read-out: concentration in brain): 2360 ng/mL | concentration at 2 h ([1]; brain, 90 mg/kg, 90 mg QD oral, read-out: concentration in brain): 6260 ng/mL | Kp at 2 h ([1]; 10 mg/kg, 10 mg QD oral): 0.788 | Kp at 2 h ([1]; 30 mg/kg, 30 mg BID oral): 0.88 | Kp at 2 h ([1]; 30 mg/kg, 30 mg QD oral): 1.11 | Kp at 2 h ([1]; 90 mg/kg, 90 mg QD oral): 1.32 | concentration at 2 h ([1]; plasma, 10 mg/kg, 10 mg QD oral, read-out: concentration in plasma): 784 ng/mL | concentration at 2 h ([1]; plasma, 30 mg/kg, 30 mg BID oral, read-out: concentration in plasma): 2740 ng/mL | concentration at 2 h ([1]; plasma, 30 mg/kg, 30 mg QD oral, read-out: concentration in plasma): 2040 ng/mL | concentration at 2 h ([1]; plasma, 90 mg/kg, 90 mg QD oral, read-out: concentration in plasma): 4720 ng/mL | IC50 (JAK1 (JH1)): > 9900 nM | IC50 (JAK3 (JH1)): > 9900 nM | IC50 (pSTAT5 in CD3+ cells): < 50 nM | IC50 (JAK2 (JH1)): 5420 nM | IC50 (TYK2(JH2)): 0.29 nM | IC50 (JAK1(JH2)): 22 nM | IC50 (TYK2 (JH1)): > 9900 nM

[2H]C([2H])([2H])Oc1c(-c2cnn(C([2H])([2H])[2H])n2)ccnc1Nc1cc(NC(=O)[C@@H]2CC23CC3)ncc1C(=O)CC [Compound 5R]
IC50 (pSTAT5 in CD3+ cells): > 50 nM

[2H]C([2H])([2H])Oc1c(-c2cnn(C([2H])([2H])[2H])n2)ccnc1Nc1cc(NC(=O)[C@H]2CC23CC3)ncc1C(=O)CC [Compound 5S]
IC50 (pSTAT5 in CD3+ cells): < 50 nM

CCC(=O)c1cnc(NC(=O)[C@@H]2CC23CC3)cc1Nc1nc(C)cc(-c2cnn(C)n2)c1OC [Compound 6R]
IC50 (pSTAT5 in CD3+ cells): < 50 nM

CCC(=O)c1cnc(NC(=O)[C@H]2CC23CC3)cc1Nc1nc(C)cc(-c2cnn(C)n2)c1OC [Compound 6S]
IC50 (pSTAT5 in CD3+ cells): < 50 nM

Reference: patent US20250333393A1, “HETEROCYCLIC COMPOUND AS TYK2 INHIBITOR, AND SYNTHESIS AND USE THEREOF” (ZHEJIANG WENDA PHARMACEUTICAL TECHNOLOGY CO., LTD., priority 2023, published 2025)
